Tests used:
[1] = molecular target: T1, PDE3A and SLFN12 (Homo sapiens, UniProt Q14432); assay: Validation of DNMDP-induced PDE3A protein interactions using immunoprecipitation and immunoblotting; type: cell-based; settings: for PDE3A and SLFN12 complex formation: FIG. 20, affinity reagents, immunoblot; for complex formation of V5-tagged SIRT7 and SLFN12 with PDE3A: HeLa, 10 μM, 4 hours, coimmunoprecipitation (FIG. 19)
T1 construct: Endogenous PDE3A was immunoprecipitated; host or cells: HeLa
Description: FIG. 19 is an immunoblot showing that DNMDP induces interaction between PDE3A and SIRT7 and SLFN12 in HeLa cells. HeLa cells were transfected with indicated plasmids and treated with indicated compounds with a final concentration of 10 μM for four hours. Endogenous PDE3A was immunoprecipitated and immunoblotted for V5 to identify novel interaction with SIRT7 and SLFN12 (upper two panels). Immunoprecipitate input was immunoblotted for PDE3A and V5 (lower two panels). V5-SLFN12 was undetectable in whole cell lysate.
FIG. 20 is an immunoblot showing confirmation of mass spectrometric results herein using affinity reagents.
HeLa cells were transfected with ORF overexpression constructs expressing V5-tagged SIRT7, V5-tagged SLFN12, or V5-tagged GFP. ORF expression constructs were obtained from the TRC (clone IDs: TRCN0000468231, TRCN0000476272, ccsbBroad304_99997). At 72 hours post transfection, cells were treated with 10 μM DNMDP or trequinsin for 4 hours followed by lysis using the ModRipa lysis buffer and immunoprecipitation of PDE3A. For each condition, 2 mg total protein lysate was incubated with 1 μg of anti-PDE3A antibody at 4° C. overnight, after which 7.5 μl each of Protein A- and Protein G-Dynabeads (Life Technologies 10001D and 10003D) were added and incubated for another 1 hour. Beads were washed and bound proteins were eluted with 30 μl of LDS PAGE gel loading buffer. Input (˜60 μg total protein lysate) and IP products were resolved on 4-12% Tris-Glycine PAGE gels and immunoblotted with an anti-V5 antibody (Life Technologies R96205, 1:5000), the Bethyl anti-PDE3A antibody (1:1000), and secondary antibodies from LiCOR Biosciences (Cat.#926-32210 and 926068021, each at 1:10,000). Blots were washed and imaged using a LiCOR Odyssey infrared imager.

[2] = molecular target: T2, PDE3A(677-1141) (Homo sapiens, UniProt Q14432); assay: Differential scanning fluorimetry (DSF) binding; settings: 5 μM protein, 100 μM compound
T2 construct: purified PDE3A catalytic domain, PDE3A(677-1141)
T2 sequence (Q14432 677-1141): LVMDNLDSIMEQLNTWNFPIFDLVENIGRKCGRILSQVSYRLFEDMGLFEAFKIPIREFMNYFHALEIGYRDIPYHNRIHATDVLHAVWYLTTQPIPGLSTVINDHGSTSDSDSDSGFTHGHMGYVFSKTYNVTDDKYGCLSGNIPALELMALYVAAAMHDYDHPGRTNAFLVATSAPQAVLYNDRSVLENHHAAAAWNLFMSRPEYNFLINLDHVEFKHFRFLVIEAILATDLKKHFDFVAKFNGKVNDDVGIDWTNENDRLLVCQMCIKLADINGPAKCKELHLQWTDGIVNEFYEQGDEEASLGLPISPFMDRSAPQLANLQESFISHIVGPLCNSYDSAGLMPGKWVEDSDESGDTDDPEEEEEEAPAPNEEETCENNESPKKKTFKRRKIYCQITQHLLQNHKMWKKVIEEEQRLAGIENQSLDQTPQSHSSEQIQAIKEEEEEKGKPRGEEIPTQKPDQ
Description: Binding buffer: 20 mM Hepes pH 7.4, 100 μM TCEP, 1 mM MgCl2, 150 mM NaCl.

[3] = molecular target: PDE3A (Homo sapiens, UniProt Q14432); assay: Immunoprecipitation of PDE3A in HeLa cells with iTRAQ/MS proteomics; design: Immunoprecipitation of endogenous PDE3A in HeLa cells; endogenous in cells; host or cells: HeLa; settings: 10 μM, four hours
Sequence of PDE3A (Q14432 whole entry): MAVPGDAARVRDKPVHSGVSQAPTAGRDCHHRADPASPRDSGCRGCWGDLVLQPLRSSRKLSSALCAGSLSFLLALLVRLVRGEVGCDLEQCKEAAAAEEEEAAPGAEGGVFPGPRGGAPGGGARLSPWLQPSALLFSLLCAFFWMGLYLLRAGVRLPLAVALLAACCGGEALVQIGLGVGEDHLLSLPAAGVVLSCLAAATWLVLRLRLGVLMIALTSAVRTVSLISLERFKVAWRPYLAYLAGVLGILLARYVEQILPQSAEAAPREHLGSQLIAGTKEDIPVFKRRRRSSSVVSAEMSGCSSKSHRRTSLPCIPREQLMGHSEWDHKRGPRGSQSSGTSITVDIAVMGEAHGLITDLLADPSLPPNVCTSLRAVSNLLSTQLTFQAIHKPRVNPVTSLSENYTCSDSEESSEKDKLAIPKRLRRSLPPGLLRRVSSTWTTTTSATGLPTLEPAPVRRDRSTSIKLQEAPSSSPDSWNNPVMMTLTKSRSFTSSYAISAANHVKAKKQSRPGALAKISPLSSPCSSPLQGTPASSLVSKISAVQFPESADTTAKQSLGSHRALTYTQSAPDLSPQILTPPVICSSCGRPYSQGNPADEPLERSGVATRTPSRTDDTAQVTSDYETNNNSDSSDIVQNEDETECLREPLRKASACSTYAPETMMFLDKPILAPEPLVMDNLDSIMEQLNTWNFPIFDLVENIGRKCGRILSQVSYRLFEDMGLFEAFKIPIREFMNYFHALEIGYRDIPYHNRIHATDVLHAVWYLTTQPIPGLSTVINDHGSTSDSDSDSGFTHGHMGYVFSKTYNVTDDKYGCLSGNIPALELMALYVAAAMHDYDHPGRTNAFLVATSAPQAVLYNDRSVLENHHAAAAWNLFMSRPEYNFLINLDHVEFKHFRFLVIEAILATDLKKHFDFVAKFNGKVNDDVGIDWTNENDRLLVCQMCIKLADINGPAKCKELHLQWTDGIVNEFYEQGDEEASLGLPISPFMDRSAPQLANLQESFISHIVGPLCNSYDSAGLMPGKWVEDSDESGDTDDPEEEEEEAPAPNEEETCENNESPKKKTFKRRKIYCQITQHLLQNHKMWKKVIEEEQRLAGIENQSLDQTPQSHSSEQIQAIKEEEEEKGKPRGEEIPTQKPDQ
Source text: The dependence of 6-(4-(diethylamino)-3-nitrophenyl)-5-methyl-4,5-dihydropyridazin-3(2H)-one (DNMDP) cytotoxicity on phosphodiesterase 3A (PDE3A) protein abundance indicated a possible mechanism similar to that recently observed for lenalidomide, which acts by a neomorphic or hypermorphic mechanism by stabilizing an interaction between cereblon and IKAROS Family Zinc Finger 1 (IKZF1) and IKZF3 (Krönke et al., Science 343, 301-305, 2014; Lu et al., Science 343, 305-309, 2014). […] The protein complexes in which PDE3A resides were characterized under normal conditions, and it was examined how these complexes change when PDE3A is bound to DNMDP or the non-cytotoxic PDE3 inhibitor trequinsin. PDE3A and interacting proteins from Hela cells were immunoprecipitated in the presence of DNMDP and trequinsin followed by labeling with isobaric stable isotope tags for relative abundance and quantitation by mass spectrometry (iTRAQ/MS, FIG. 13A). […]
Desalted peptides were labeled with isobaric tags for relative and absolute quantification (iTRAQ)-reagents according to the manufacturer's instructions (AB Sciex, Foster City, Calif.). […]
Reconstituted peptides were separated on an online nanoflow EASY-NLC™ 1000 UHPLC system (Thermo Fisher Scientific) and analyzed on a benchtop Orbitrap Q EXACTIVE™ mass spectrometer (Thermo Fisher Scientific). […]

T1 sequence (Q14432 whole entry): as above
T1 sequence (Q8IYM2 whole entry partner): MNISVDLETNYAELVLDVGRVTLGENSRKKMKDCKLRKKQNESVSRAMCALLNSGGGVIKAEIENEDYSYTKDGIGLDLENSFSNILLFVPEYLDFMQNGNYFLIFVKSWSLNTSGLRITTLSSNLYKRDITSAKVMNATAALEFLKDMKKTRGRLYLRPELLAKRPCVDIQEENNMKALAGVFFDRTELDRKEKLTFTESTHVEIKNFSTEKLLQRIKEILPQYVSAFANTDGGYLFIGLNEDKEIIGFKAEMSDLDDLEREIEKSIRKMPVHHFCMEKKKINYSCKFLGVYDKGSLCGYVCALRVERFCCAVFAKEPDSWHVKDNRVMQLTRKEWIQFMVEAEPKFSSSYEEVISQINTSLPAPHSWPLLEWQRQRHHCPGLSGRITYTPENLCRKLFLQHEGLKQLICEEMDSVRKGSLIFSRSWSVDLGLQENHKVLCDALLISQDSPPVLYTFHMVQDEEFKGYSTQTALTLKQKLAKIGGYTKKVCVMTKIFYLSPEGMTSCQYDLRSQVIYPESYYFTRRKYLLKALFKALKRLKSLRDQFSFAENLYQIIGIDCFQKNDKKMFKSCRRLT

| Structure (SMILES) | PDE3A and SLFN12 complex formation [1] | complex formation of V5-tagged SIRT7 and SLFN12 with PDE3A [1] | Tm (° C.) [2] [°C] | ΔTm at 100 µM [2] [°C] | enrichment of SIRT7 and SLFN12 in PDE3A immunoprecipitates [3] |
| --- | --- | --- | --- | --- | --- |
| COc1cc2c(cc1OC)-c1c/c(=N\c3c(C)cc(C)cc3C)n(C)c(=O)n1CC2 [trequinsin, 9,10-dimethoxy-3-methyl-2-(2,4,6-trimethylphenyl)imino-6,7-dihydropyrimido[6,1-a]isoquinolin-4-one] | not | not | 66.2 ± 0.0 | 14.2 | not observed |
| CCN(CC)c1ccc(C2=NNC(=O)CC2C)cc1[N+](=O)[O-] (stereo not shown) [DNMDP, 6-(4-(diethylamino)-3-nitrophenyl)-5-methyl-4,5-dihydropyridazin-3(2H)-one] | induced | enhanced | 58.4 ± 0.0 | 6 | specifically enriched |
